In patent US11622964B2, “Method for destroying cellular mechanical homeostasis and promoting regeneration and repair of tissues and organs, and use thereof” (INSTITUTE OF ZOOLOGY, CHINESE ACADEMY OF SCIENCES, priority 2018, dated 2023):
Blank lines part the entries; values can stand above or below the compound they belong to.

How the values were obtained:
adult hepatocytes = assay: In vitro amplification of adult hepatocytes; assay type: cell-based, human; conditions: for number of cells: after 6 days of culture
Procedure: Resuscitation and Culture of Adult Hepatocytes: adult hepatocytes ([…] […] human, Bioreclamation IVT) are taken out from the liquid nitrogen tank, quickly placing in a 37° C. water bath, after melting the cells are added to 5 ml of 37° C. pre-warmed hepatocyte inoculation medium (In VitroGRO CP Medium), then inoculating at 9×10^4/well in 24-well plate after counting, 2-4 hours after hepatocyte adherence, the hepatocyte inoculation medium is sucked and discarded, then respectively adding control medium for hepatocyte culture, 10 μm small molecule medium, and 20 μm small molecule medium; changing the medium every 2 days. The number of cells is estimated from the photograph on day 2. After 4 days, the 20 μm small molecule medium group is changed to culture the cells in 10 μm small molecule medium. After co-culturing for 6 days the cells are counted. A portion of the cells are taken for RNA extraction so as to detect the expression of human hepatocyte-specific genes. Passage of Adult Hepatocytes: 4.7×10^4 hepatocytes cultured in the above control group, and 8×10^4 hepatocytes cultured in 10 μm small molecule medium are respectively re-inoculated into 24-well plate coated with rat tail collagen, changing the medium every two days and culturing for 6 days, photographs are taken to record the growth of the cells. Induction of CYP1A2 in Adult Hepatocytes Amplified by Small Molecule Medium: 3×10^5 hepatocytes are inoculated in 24-well plate coated with rat tail collagen, after culturing in 10 μm small molecule medium for 24 hours, the medium is replaced with 10 μm small molecule medium containing 50 μm omeprazole, and in the control group the cells are cultured in 10 μm small molecule medium containing DMSO; 48 hours later, the cells are collected to detect the expression of the CYP1A2 gene.

[1] = tested on: mouse embryonic fibroblasts (MEFs); assay: TGF-β1-induced transformation of mouse embryonic fibroblasts into myofibroblasts; assay type: cell-based; conditions: S-Bleb-OB 20 μM; for stretched state / fibrous morphology of MEFs: compared with DMSO; for TGF-β1-induced myofibroblast activation: scheme as Example 9-1
From the text: In this example, cell models for in vitro fibrosis are respectively built to activate mouse hepatic stellate Cells (mHSCs, FIG. 13(B)), mouse embryonic fibroblasts (MEFs FIG. 13(C)), mouse adult liver, lung, and heart-derived primary mesenchymal cells (priMCs, FIG. 13(D)), and human hepatic stellate cells (hLX-2, FIG. 13(E)) into myofibroblasts through the induction of TGF-β1. The specific experimental procedure is as shown in FIG. 9A: a medium containing 10% serum is used for the initial cell culture; after 24 hours the medium is replaced with low serum medium (or pre-starvation treatment for 16 hours) while adding 3 ng/ml TGF-β1 with DMSO or Bleb (20 μM); after 7 days the expression of myofibroblast activation marker protein (Acta2), collagen (Col1a1, Col1a2, Col3a1, and Col1a2), and matrix metalloproteinases and inhibitors (collagenases: MmP8, and MmP13; gelatinases: MmP2, and MmP9; a metalloproteinase inhibitor: Timp1/2/3) are identified.

expression of CYP1A2 gene after induction (adult hepatocytes; 50 μm omeprazole, 48 hours, subcultured adult hepatocytes in 10 μm small molecule medium): increase
Compound: COc1ccc2[nH]c([S+]([O-])Cc3ncc(C)c(OC)c3C)nc2c1 (stereo not drawn) [omeprazole]

Compound: Cc1ccc2c(c1)C(=O)[C@]1(OC(=O)c3ccccc3)CCN(c3ccccc3)C1=N2 [S-Bleb-OB, (−)-blebbistatin o-benzoate]
stretched state / fibrous morphology of MEFs [1]: may destroy the stretched state | TGF-β1-induced myofibroblast activation [1]: capable of inhibiting

Compound: Cc1ccc2c(c1)C(=O)[C@@]1(O)CCN(c3ccccc3)C1=N2 [R-Bleb, (R)-(+)-blebbistatin]
stretched state / fibrous morphology of MEFs [1]: does not affect the fibrous morphology | TGF-β1-induced myofibroblast activation [1]: no inhibitory effect

amplification effect on adult hepatocytes (cell number day 6 / day 2) (adult hepatocytes): significant amplification effect | expression of human hepatocyte specific genes ALBUMIN, AFP, CYP1A2, CYP3A4 (adult hepatocytes): still express | subculture of human hepatocytes (adult hepatocytes): can subculture human hepatocytes
Compound: (−)-blebbistatin
number of cells (adult hepatocytes; 10 μm group): 6.47×10^4 (SD=1.24) | number of cells (adult hepatocytes; # group (20 μm for 4 days, then 10 μm for 2 days)): 9.47×10^4 (SD=0.98) | expression of proliferating cell nuclear antigen (PCNA) gene (adult hepatocytes; vs control group): significantly higher

Compound: (−)-blebbistatin o-benzoate [S-Bleb-OB]
TGF-β1-induced myofibroblast activation [1]: have an inhibitory effect
